Measured values as given in patent US20090035345A1, “Nuclear Receptors Agonists for Treatment of Atherosclerosis and/or Related Cardiovascular Disease” (ACADEMISCH MEDISCH CENTRUM, BUREAU, priority 2005, published 2009).

Key:
TR3-like factors = settings: Chintharlapalli et al., J Biol. Chem. 2005; cited from earlier work
human SMCs [1] = assay: DNA synthesis assay ([3H]thymidine incorporation) in FBS-stimulated cultured SMCs; assay type: cell-based; settings: for DNA synthesis in SMCs: increasing concentrations of C-DIM
Protocol: (§1) Human SMCs were explanted from umbilical cord arteries. Cells were cultured in DMEM (Invitrogen Life Technology, Breda, The Netherlands) with 10% (v/v) fetal bovine serum (FBS) with penicillin and streptomycin (Invitrogen). Cells were used at passages five to seven. […] To determine cellular viability, cells were washed with PBS and subsequently incubated in medium in the presence of 0.5-mg/ml 3-(4,5-dimethylthiazol-2-yl)-2,5-diphenyltetrazolium bromide (MTT; Sigma Diagnostics, St. Louis). After two hours, medium was discarded, formazan crystals were dissolved in isopropanol and optical density was measured at 590 nm. Apoptosis was induced by incubating cells for 24 hours in medium with 0.25 μM staurosporine (Sigma). Subsequently, SMCs were fixed, stained with Hoechst dye and the relative number of apoptotic nuclei was determined.
SMCs were seeded in 24-well plates at 1−4×10^4 cells per well and reached 60% to 70% confluency after 24 hours. SMCs were made quiescent by incubation for 24 hours in FBS-free medium. 6-MP was dissolved in dimethylsulfoxide and applied one hour before FBS stimulation. SMCs were stimulated for 24 hours with 10% (v/v) FBS and subsequently cells were labeled for 18 hours with 0.25 μCi/well [methyl-3H]thymidine (Amersham Biosciences, Buckinghamshire, UK). Incorporated radioactivity was precipitated for 30 min at 4° C. with 10% (w/v) trichloroacetic acid, washed twice with 5% (w/v) trichloroacetic acid, and dissolved in 0.5 N NaOH (0.5 mL per well). Incorporated [^3H]thymidine was measured by liquid-scintillation counting.
(§2) The following small interfering (si)RNA sequences were used: Nur77 siRNA, 5′-CAG UCC AGC CAU GCU CCU C dTdT-3′, as described previously^20, and control siRNA, 5′-CAG ACG AGC CUU GCU CGU C dTdT-3′ (Ambion Inc., Austin, Tex.). Five μg of siRNA was transfected into 0.5−1×10^6 SMCs, using Nucleofector reagent for SMCs (Amaxa) as per the manufacturer's recommendations. Total mRNA was isolated five days after transfection, using the absolutely mRNA miniprep kit (Stratagene, La Jolla, Calif.). Subsequent cDNA synthesis was performed using the iScript cDNA synthesis kit (Biorad, Hercules, Calif.). Real-time polymerase chain reaction (PCR) was performed using SYBR green mix (Biorad) in the MyIQ System (Biorad). Primers for Nur77 were as follows: (forward) 5′-[…]-3′ and (reverse) 5′-[…]-3′. As a control for equal amount of first strand cDNA in different samples we corrected for Ribosomal Phosphoprotein (P0) mRNA levels, which were determined with the following primers (forward) 5′-[…]-3′ and (reverse) 5′-[…]-3′.
as §2, with “iscript” for “iScript”

human SMCs [2] = assay: Apoptosis of SMCs, Hoechst staining of nuclei; assay type: cell-based; settings: 24 hours
Protocol: as §1

human SMCs [3] = assay: SMC viability by MTT assay; assay type: cell-based; settings: quiescent SMCs, 24 hours
Protocol: as §1

Row | Compound | activity of TR3-like factors (TR3-like factors) | DNA synthesis in SMCs (human SMCs [1]; serum) | effectiveness in inhibiting DNA synthesis compared with the other C-DIMs (human SMCs [1]; serum, increasing concentrations) | inhibition of DNA synthesis (human SMCs [1]; SMCs transfected with Nur77 (TR3)-specific siRNA) | inhibition of DNA synthesis (human SMCs [1]; SMCs transfected with control siRNA) | induction of apoptosis (human SMCs [2]; SMCs, staurosporine 0.25 μM) | apoptosis (apoptotic nuclei) (human SMCs [2]; quiescent SMCs) | cellular viability / cytotoxicity (MTT) (human SMCs [3]) | reduction of number of viable cells (MTT) (human SMCs [3])
1 | FC(F)(F)c1ccc(C(c2c[nH]c3ccccc23)c2c[nH]c3ccccc23)cc1 [C-DIM-CF3] | increase the activity of TR3-like factors | inhibit DNA synthesis in SMCs dose dependently | – | – | – | – | – | – | –
2 | c1ccc(C(c2c[nH]c3ccccc23)c2c[nH]c3ccccc23)cc1 [C-DIM-H] | increase the activity of TR3-like factors | inhibit DNA synthesis in SMCs dose dependently | less effective | – | – | – | – | – | –
3 | COc1ccc(C(c2c[nH]c3ccccc23)c2c[nH]c3ccccc23)cc1 [C-DIM-OCH3] | increase the activity of TR3-like factors | inhibit DNA synthesis in SMCs dose dependently | – | 40.1% | 49.7% | – | – | – | –
4 | CN[C@@H]1C[C@H]2O[C@@](C)([C@@H]1OC)n1c3ccccc3c3c4c(c5c6ccccc6n2c5c31)C(=O)NC4 [staurosporine] | – | – | – | – | – | induces apoptosis | 50%±4% | reduces cell viability | 35%
